Reference: patent publication US11091529B2, “Peptides having reduced toxicity that stimulate cholesterol efflux” (The Regents of the University of California, priority 2014, dated 2021)
Where no end group is shown, it is not given here.

Tested on: male, chow-fed C57Bl/6 mice
Assay: Safety and TG elevating effects after IP injection of peptides (plasma CPK, ALT, AST, TG)
Settings: 300 mg/kg IP; for muscle toxicity as judged by CPK activity in plasma: compared with ATI-5261
From the text: Since the position of positively charged amino acids near the lipid-water interface of class A α-helices is thought to mediate membrane interactions, we tested whether inverting the positions of positive and negative residues within ATI-5261 lessened the toxic response of the peptide at high doses. Panel A—Helical-wheel and net diagrams of ATI-5261 showing the positions of positively charged lysine (K) and arginine (R) at the lipid interface of the amphipathic α-helix (i.e. helical wheel diagrams on left). […] Plasma CPK, ALT, AST and TG (table) were assessed after 4 h. Values and means±SD, n=4.
Panel A—The positions of charged amino acids within the LeuATI-5261 peptide were switched to move the positive lysine and arginine residues away from the lipid-water interface of the amphipathic α-helix. Panel B— Safety and TG elevating effects were evaluated by injecting (IP) peptides (300 mg/kg) into male, chow-fed C57Bl/6 mice. Values are means SD, n=4. […] J774 macrophages were labeled with [3H]cholesterol and treated with (red, right side bars) and without (blue, left side bars) cAMP to modulate ABCA1 expression.
Panel A—Safety and TG elevating effects were evaluated by injecting (IP) peptides (300 mg/kg) into male, chow-fed C57Bl/6 mice. Values are means SD, n=4. […] Panel B-ABCA1-dependent cholesterol efflux activity of peptides determined using J774 macrophages labeled with [3H]cholesterol. Results are expressed as the ABCA1 component of efflux.
Peptides or peptidomeimetics of the invention can be evaluated for toxicity using known assays. […] Safety chemistry panels including plasma alanine aminotransferase (ALT), aspartate amino transferase (AST), and creatine kinase (CK) can then be determined in the blood. […]
Since the position of positively charged amino acids near the lipid-water interface of class A α-helices is thought to mediate membrane interactions, we tested whether inverting the positions of positive and negative residues within ATI-5261 lessened the toxic response of the peptide at high doses. […] Plasma CPK, ALT, AST and TG (table) were assessed after 4 h as described in FIGS. 4-6. […]

Row | Sequence | muscle toxicity as judged by CPK activity in plasma | cytotoxicity (plasma CPK, ALT, AST) (plasma after 4 h, n=4)
1 | EVRSKLEEWFAAFREFAEEFLARL [T5766-5] | greatly reduced muscle toxicity | –
2 | EVRSKLEEWFAAFREFAEEFLARLNS [T5594-4] | greatly reduced muscle toxicity | –
3 | KVESELREWLAALEKLARRLLAELES [T6023-2] | – | no increase in muscle toxicity or elevated plasma enzymes compared to vehicle alone
